Measurements as given in patent publication US20220395522A1, “Methods of Use of Glucosamine for Increasing Nitrogen Retention” (TSI Bioproducts (Xuzhou) Co., Ltd., priority 2021, published 2022).

Legend:
[1] = tested on: Bacillaceae; assay: Fecal microbiota analysis, differential abundance of taxa (MaAsLin); assay type: in vivo, human; conditions: after GLU intake compared to baseline (GLU (Pre)), p=0.038
Description: (§1) To determine significant differences between bacterial alpha diversity metrics (the measure of microbiome diversity within a single sample), a paired t-test was used between alpha diversity values of different sample groups (p<0.05). Significant differences in beta diversity (the measure of similarity or dissimilarity of multiple samples) between groups was determined using the qiime diversity beta-group-significance command in QIIME2 as well, which performs pairwise Permutational Multivariate Analysis of Variance (PERMANOVA) tests on beta diversity distance matrices (p<0.05). Differential abundance of taxa between sample groups were evaluated using Multivariate Analysis by Linear Models (MaAsLin) in R version 4.0.2 using the Maaslin2 command in the Maaslin2 R library on rarified taxonomy data generated by QIIME2 (p<0.05). […]
(§2) A fecal microbiota analysis was further conducted. […] The Qubit Fluorometer (Thermo Fisher Scientific, San Francisco, Calif.) was used to quantify PCR product concentrations prior to combining the PCR products in equal quantities for purification with the Wizard SV Gel and PCR Cleanup kit (Promega, Madison, Wis.). […] Library purity and concentration was measured on a 2100 Bioanalyzer System (Agilent Technologies, Santa Clara, Calif.). […]
(§3) Ion Torrent BAM files of raw DNA sequencing data were converted to the FASTQ format using BEDTools and then analyzed using Quantitative Insights into Microbiology (QIIME2) version 2019.10. Reads shorter than 200 bp in length were removed. […] Multiple sequence Alignment using Fast Fourier Transform (MAFFT) was used for read alignment, while gapped and unconserved alignments were filtered using the alignment mask plugin. […] Sequences of mitochondria and chloroplast origin were filtered from downstream analysis, leaving a total of 1,391,259 total high-quality reads associated with taxonomic annotations. Samples were rarified to 7,874 reads for alpha and beta diversity analysis. […]

[2] = tested on: Pseudomonadaceae; assay: as above; assay type: in vivo, human; conditions: after GLU intake compared to baseline (GLU (Pre)), p=0.014
Description: as §1, §2, §3

Cl.N[C@H]1C(O)O[C@H](CO)[C@@H](O)[C@@H]1O (some centres unmarked) [GLU, glucosamine hydrochloride]
Proportion of Bacillaceae [1]: not detected | Proportion of Pseudomonadaceae, Log2 FC [2]: −1.05
